Measured values taken from US7964531B2, “3-phenoxy-4-pyridazinol derivatives and herbicidal composition containing the same” (Mitsui Chemicals Agro, Inc., priority 2001, dated 2011).

Assays:
Type in all cases: in vivo
Details in all cases: wettable powder applied 3 days after transplanting, judged after 25 days
Cyperus serotinus = test: Test Example 1: herbicidal effects, paddy-field pot test
Procedure: (§1) A paddy soil was filled in 1/10,000 are pot, and seeds of barnyardgrass (Echinochloa oryzicola Vasing.), Scirpus joncoides and annual broad-leaved weeds (Lindernia spp., Rotala indica) which are awaken from dormancy were mixed at the surface layer of 1 cm. Also, tuber of Cyperus serotinus which is germinated was planted, and further seedlings of paddy-field rice at 2.2-leaf stage were transplanted, and they were grown under the flooded condition in a greenhouse. After 3 days from transplanting, a predetermined chemical dosage of the wettable powder prepared in accordance with Preparation example 1 was diluted in water, and the solution was applied to the pot and herbicidal effects and crop injury against transplanted paddy-field rice were judged after 25 days from the treatment. Also, 3-(2-allylphenoxy)-6-chloro-4-methoxypyridazine described in Chemical Pharmaceutical Bulletin, 1972, vol. 20, No. 10, pp. 2191-2203 was used as Comparative compound. Incidentally, herbicidal effects and crop injury against transplanted paddy-field rice were judged by the following judgment standard, and “-” in the table means no test was carried out.
(§2) Judgment Standard • 0: Growth inhibition rate; 0 to 10% • 1: Growth inhibition rate; 11 to 30% • 2: Growth inhibition rate; 31 to 50% • 3: Growth inhibition rate; 51 to 70% • 4: Growth inhibition rate; 71 to 90% • 5: Growth inhibition rate; 91 to 100%.

Scirpus joncoides = test: as above
Procedure: as §1, §2

[1] = system: annual broad-leaved weeds (Lindernia spp., Rotala indica); test: as above
Procedure: as §1, §2

[2] = system: barnyardgrass (Echinochloa oryzicola Vasing.); test: as above
Procedure: as §1, §2

[3] = system: transplanted paddy-field rice; test: Test Example 1: crop injury against transplanted paddy-field rice
Procedure: as §1, §2

Structure (SMILES)	Herbicidal effects Cyperus serotinus (Cyperus serotinus; chemical dosage 10 g/a)	Herbicidal effects Broad leaf ([1]; chemical dosage 10 g/a)	Herbicidal effects Broad leaf ([1]; chemical dosage 20 g/a)	Herbicidal effects Barnyard grass ([2]; chemical dosage 10 g/a)	Herbicidal effects Barnyard grass ([2]; chemical dosage 20 g/a)	Crop injury against transplanted rice ([3]; chemical dosage 10 g/a)	Crop injury against transplanted rice ([3]; chemical dosage 20 g/a)	other results
Cc1cc(C)c(C)c(Oc2nnc(Cl)cc2O)c1 [Example 286]								Herbicidal effects Cyperus serotinus (Cyperus serotinus; chemical dosage 12.5 g/a): 5 (Growth inhibition rate; 91 to 100%); Herbicidal effects Cyperus serotinus (Cyperus serotinus; chemical dosage 25 g/a): 5 (Growth inhibition rate; 91 to 100%); Herbicidal effects Scirpus joncoides (Scirpus joncoides; chemical dosage 12.5 g/a): 5 (Growth inhibition rate; 91 to 100%); Herbicidal effects Scirpus joncoides (Scirpus joncoides; chemical dosage 25 g/a): 5 (Growth inhibition rate; 91 to 100%); Herbicidal effects Broad leaf ([1]; chemical dosage 12.5 g/a): 5 (Growth inhibition rate; 91 to 100%); Herbicidal effects Broad leaf ([1]; chemical dosage 25 g/a): 5 (Growth inhibition rate; 91 to 100%); Herbicidal effects Barnyard grass ([2]; chemical dosage 12.5 g/a): 0 (Growth inhibition rate; 0 to 10%); Herbicidal effects Barnyard grass ([2]; chemical dosage 25 g/a): 0 (Growth inhibition rate; 0 to 10%); Crop injury against transplanted rice ([3]; chemical dosage 12.5 g/a): 0 (Growth inhibition rate; 0 to 10%); Crop injury against transplanted rice ([3]; chemical dosage 25 g/a): 0 (Growth inhibition rate; 0 to 10%)
CC(C)Oc1ccccc1Oc1nnc(Cl)cc1O [Example 123]	4 (Growth inhibition rate; 71 to 90%)	5 (Growth inhibition rate; 91 to 100%)	5 (Growth inhibition rate; 91 to 100%)	0 (Growth inhibition rate; 0 to 10%)	1 (Growth inhibition rate; 11 to 30%)	0 (Growth inhibition rate; 0 to 10%)	0 (Growth inhibition rate; 0 to 10%)	Herbicidal effects Cyperus serotinus (Cyperus serotinus; chemical dosage 20 g/a): 5 (Growth inhibition rate; 91 to 100%); Herbicidal effects Scirpus joncoides (Scirpus joncoides; chemical dosage 10 g/a): 3 (Growth inhibition rate; 51 to 70%); Herbicidal effects Scirpus joncoides (Scirpus joncoides; chemical dosage 20 g/a): 4 (Growth inhibition rate; 71 to 90%)
Cc1cc(C)c(Br)c(Oc2nnc(Cl)cc2O)c1 [Example 285]	2 (Growth inhibition rate; 31 to 50%)	5 (Growth inhibition rate; 91 to 100%)	5 (Growth inhibition rate; 91 to 100%)	0 (Growth inhibition rate; 0 to 10%)	0 (Growth inhibition rate; 0 to 10%)	0 (Growth inhibition rate; 0 to 10%)	0 (Growth inhibition rate; 0 to 10%)	Herbicidal effects Cyperus serotinus (Cyperus serotinus; chemical dosage 20 g/a): 3 (Growth inhibition rate; 51 to 70%); Herbicidal effects Scirpus joncoides (Scirpus joncoides; chemical dosage 10 g/a): 4 (Growth inhibition rate; 71 to 90%); Herbicidal effects Scirpus joncoides (Scirpus joncoides; chemical dosage 20 g/a): 5 (Growth inhibition rate; 91 to 100%)
Oc1cc(Cl)nnc1Oc1cccc2ccccc12 [Example 180]								Herbicidal effects Cyperus serotinus (Cyperus serotinus; chemical dosage 12.5 g/a): 5 (Growth inhibition rate; 91 to 100%); Herbicidal effects Cyperus serotinus (Cyperus serotinus; chemical dosage 25 g/a): 5 (Growth inhibition rate; 91 to 100%); Herbicidal effects Scirpus joncoides (Scirpus joncoides; chemical dosage 12.5 g/a): 2 (Growth inhibition rate; 31 to 50%); Herbicidal effects Scirpus joncoides (Scirpus joncoides; chemical dosage 25 g/a): 3 (Growth inhibition rate; 51 to 70%); Herbicidal effects Broad leaf ([1]; chemical dosage 12.5 g/a): 5 (Growth inhibition rate; 91 to 100%); Herbicidal effects Broad leaf ([1]; chemical dosage 25 g/a): 5 (Growth inhibition rate; 91 to 100%); Herbicidal effects Barnyard grass ([2]; chemical dosage 12.5 g/a): 0 (Growth inhibition rate; 0 to 10%); Herbicidal effects Barnyard grass ([2]; chemical dosage 25 g/a): 0 (Growth inhibition rate; 0 to 10%); Crop injury against transplanted rice ([3]; chemical dosage 12.5 g/a): 0 (Growth inhibition rate; 0 to 10%); Crop injury against transplanted rice ([3]; chemical dosage 25 g/a): 0 (Growth inhibition rate; 0 to 10%)
CCc1cc(I)cc(I)c1Oc1nnc(Cl)cc1O [Example 316]		5 (Growth inhibition rate; 91 to 100%)	5 (Growth inhibition rate; 91 to 100%)	2 (Growth inhibition rate; 31 to 50%)	3 (Growth inhibition rate; 51 to 70%)	0 (Growth inhibition rate; 0 to 10%)	0 (Growth inhibition rate; 0 to 10%)	
Oc1cc(Cl)nnc1Oc1c(Br)cccc1Br [Example 248]	5 (Growth inhibition rate; 91 to 100%)	5 (Growth inhibition rate; 91 to 100%)		3 (Growth inhibition rate; 51 to 70%)		0 (Growth inhibition rate; 0 to 10%)		Herbicidal effects Cyperus serotinus (Cyperus serotinus; chemical dosage 5 g/a): 5 (Growth inhibition rate; 91 to 100%); Herbicidal effects Broad leaf ([1]; chemical dosage 5 g/a): 5 (Growth inhibition rate; 91 to 100%); Herbicidal effects Barnyard grass ([2]; chemical dosage 5 g/a): 1 (Growth inhibition rate; 11 to 30%); Crop injury against transplanted rice ([3]; chemical dosage 5 g/a): 0 (Growth inhibition rate; 0 to 10%)
CC(C)c1cccc(C(C)C)c1Oc1nnc(Cl)cc1O [Example 271]								Herbicidal effects Cyperus serotinus (Cyperus serotinus; chemical dosage 12.5 g/a): 3 (Growth inhibition rate; 51 to 70%); Herbicidal effects Cyperus serotinus (Cyperus serotinus; chemical dosage 25 g/a): 4 (Growth inhibition rate; 71 to 90%); Herbicidal effects Scirpus joncoides (Scirpus joncoides; chemical dosage 12.5 g/a): 2 (Growth inhibition rate; 31 to 50%); Herbicidal effects Scirpus joncoides (Scirpus joncoides; chemical dosage 25 g/a): 4 (Growth inhibition rate; 71 to 90%); Herbicidal effects Broad leaf ([1]; chemical dosage 12.5 g/a): 5 (Growth inhibition rate; 91 to 100%); Herbicidal effects Broad leaf ([1]; chemical dosage 25 g/a): 5 (Growth inhibition rate; 91 to 100%); Herbicidal effects Barnyard grass ([2]; chemical dosage 12.5 g/a): 1 (Growth inhibition rate; 11 to 30%); Herbicidal effects Barnyard grass ([2]; chemical dosage 25 g/a): 2 (Growth inhibition rate; 31 to 50%)
Oc1cc(Cl)nnc1Oc1c(F)cc(C2CC2)cc1C1CC1 [Example 313]			5 (Growth inhibition rate; 91 to 100%)		1 (Growth inhibition rate; 11 to 30%)		0 (Growth inhibition rate; 0 to 10%)	
CC(C)c1cccc(I)c1Oc1nnc(Cl)cc1O [Example 258]		5 (Growth inhibition rate; 91 to 100%)		3 (Growth inhibition rate; 51 to 70%)		0 (Growth inhibition rate; 0 to 10%)		
Cc1cc(C)c(Oc2nnc(Cl)cc2O)c(Br)c1 [Example 315]			5 (Growth inhibition rate; 91 to 100%)		4 (Growth inhibition rate; 71 to 90%)		0 (Growth inhibition rate; 0 to 10%)	Herbicidal effects Cyperus serotinus (Cyperus serotinus; chemical dosage 20 g/a): 5 (Growth inhibition rate; 91 to 100%)
Oc1cc(Cl)nnc1Oc1cccc2c1CC1CC21 (centres unmarked) [Example 15]	5 (Growth inhibition rate; 91 to 100%)	5 (Growth inhibition rate; 91 to 100%)		1 (Growth inhibition rate; 11 to 30%)		0 (Growth inhibition rate; 0 to 10%)		
CCc1ccc(C2CC2)c(Oc2nnc(Cl)cc2O)c1 [Example 219]		5 (Growth inhibition rate; 91 to 100%)	5 (Growth inhibition rate; 91 to 100%)	3 (Growth inhibition rate; 51 to 70%)	4 (Growth inhibition rate; 71 to 90%)	0 (Growth inhibition rate; 0 to 10%)	0 (Growth inhibition rate; 0 to 10%)	Herbicidal effects Scirpus joncoides (Scirpus joncoides; chemical dosage 10 g/a): 5 (Growth inhibition rate; 91 to 100%); Herbicidal effects Scirpus joncoides (Scirpus joncoides; chemical dosage 20 g/a): 5 (Growth inhibition rate; 91 to 100%)
Cc1ccc(Oc2nnc(Cl)cc2O)c(C2CC2)c1 [Example 202]	4 (Growth inhibition rate; 71 to 90%)	5 (Growth inhibition rate; 91 to 100%)		2 (Growth inhibition rate; 31 to 50%)		0 (Growth inhibition rate; 0 to 10%)		
CN(C)C(=O)Oc1cc(Cl)nnc1Oc1ccccc1C1CC1 [Example 352]			5 (Growth inhibition rate; 91 to 100%)		4 (Growth inhibition rate; 71 to 90%)		0 (Growth inhibition rate; 0 to 10%)	Herbicidal effects Scirpus joncoides (Scirpus joncoides; chemical dosage 20 g/a): 5 (Growth inhibition rate; 91 to 100%)
